Test: Solubility of different forms of Rimonabant hydrochloride in solvents
Format: physicochemical
Details: at R.T.
Text: • All the forms were soluble in alcohols such as methanol, ethanol etc.

## Cc1c(C(=O)NN2CCCCC2)nn(-c2ccc(Cl)cc2Cl)c1-c1ccc(Cl)cc1 [Form II, 5-(4-chlorophenyl)-1-(2,4-dichlorophenyl)-4-methyl-N-(piperidin-1-yl)pyrazole-3-carboxamide]
  solubility in acetone: partly soluble
  solubility in acetonitrile: partly soluble
